Read-outs that look alike come from different tables or passages of the source.
How the values were obtained:
[1] = tested on: E. rostratum hyphal fragments; assay: hyphal fragment fungicidal ATP content assay (PBS, 1536-well); assay type: cell-based, Exserohilum rostratum; settings: for Hyphae % M. Res. / Emax / Hyphae % Max. Resp.: 46 µM Amphotericin B = 100%; for Emax / IC50: Exserohilum rostratum; for IC50: read-out: Hyphae IC50
Description: (§1) Conidia and hyphae of E. rostratum were obtained as described by Richard et al., with the following modifications. Briefly, conidia were harvested from Potato Dextrose Agar (PDA) cultured media with 0.05% Tween 80, and the conidial suspension was filtered using a Cell Strainer (100 µm, BD Falcon REF 352340). After centrifugation at 700g for 10 min, the suspension was decanted and conidia were resuspended at 1×10^5 per ml in RPMI and counted in a hemocytometer. Hyphae were harvested from yeast extract peptone dextrose (YPD) culture media with 0.05% Tween 80. Hyphal fragments were sized by vortexing 15 sec twice with 0.4 mm glassbeads, and the hyphae suspension was filtered by cheese cloth twice. […] To normalize concentrations of hyphal fragments for batch to batch consistency, carbohydrate analysis was performed by a phenol-sulfuric acid method as previously described. The final stock concentration of hyphae was adjusted to 1.0 (OD490) per 100 µl.
(§2) The ATPLite assay kit, consisting of luciferase/luciferin and detergent, was used to quantitate cellular ATP levels as a marker for cell viability (Table 1). For assay development, hyphal fragments or conidia in PBS were plated in a seeding density of 3,750, 7,500 and 15,000 cellular particles/well with a final volume of 5 µl/well using the Multidrop-Combi dispenser in white 1536-well plates. Conidia or hyphae fragments were incubated for 24 h at 37°C in a 5% CO2 humidified atmosphere. ATPLite detection reagents were added at 4 µl/well. The assay plates were incubated at room temperature for 15 minutes before reading luminescence intensity on a ViewLux plate reader (Perkin Elmer, Waltham, MA). Conidia suspended in RPMI medium were inoculated at concentrations of 62.5, 125 and 250 conidia/well with a final volume of 5 µl/well in white 1536-well plates. The conidia assay was developed and optimized in the same way as the hyphal assay.
(§3) The LOPAC library (Sigma-Aldrich) has been extensively used for HTS assay validations, [18]. The NIH Chemical Genomics Center Pharmaceutical (NPC) collection was constructed in-house through a combined effort of compound purchasing and custom synthesis and recently expanded to 4096 compounds. […] 2.5 µl/well PBS was dispensed into 1536-well plates using a Multidrop-Combi dispenser. Compound in DMSO solution was transferred in a volume of 23 nl/well using a NX-TR pintool station (WAKO Scientific Solutions, San Diego, CA). This additional PBS step for compound addition was designed to prevent the potential fungal contamination of compound libraries. The hyphal fragments in PBS were then added at 2.5 µl/well for a final seeding density of 15,000 hyphal fragments/well using the Multidrop-Combi dispenser. The final compound concentration was 46 µM in the primary screen. The assay plates were incubated for 24 h at 30°C before the detection of cellular viability with the ATP content assay. Screen of conidia was performed in a similar way except that PBS was replaced with RPMI medium and conidia were plated for a final seeding density of 250 conidia/well.
(§4) The primary screen data and curve fitting were analyzed using software developed internally at the NIH Chemical Genomics Center (NCGC). Total signals for cellular viability (100% cellular viability) were calculated from the wells with DMSO solvent and the complete cell killing (0% cellular viability) was calculated from 46 µM amphotericin B treated wells. […] All values were expressed as the mean +/− SD (n≥3).

[2] = tested on: E. rostratum conidia; assay: conidia growth inhibition ATP content assay (RPMI, 1536-well); assay type: cell-based, Exserohilum rostratum; settings: for IC50: read-out: Conidia IC50
Description: as §1, §2, §3, §4

[3] = tested on: SH-SY5Y cells; assay: SH-SY5Y cytotoxicity counter-screen (ATP content assay); assay type: cell-based, Human; settings: for SH-SY5Y % M. Res.: Inact. = no significant activity at 46 µM; for SH-SY5Y % Max. Resp.: Table 2, SH-SY5Y, inact. = no significant activity at 46 µM
Description: Human neuroblastoma SH-SY5Y cell line (Catalog No. CRL-2266) was purchased from ATCC (Manassas, VA). SH-SY5Y cell line was cultured in 175-cm^2 tissue culture flasks (Costar, Cambridge, MA) with 30 ml of growth medium at 37°C in a 5% CO2 humidified atmosphere. Growth medium was made with Dulbecco's Modified Eagle Medium: Nutrient Mixture F-12 with 10% fetal bovine serum (FBS). Growth medium was replaced every other day and cells were passed at 75% confluence.
as §2
Two small known compound libraries including the LOPAC (1280 compounds) and approved drugs (4096 compounds) were screened in parallel using the above optimized assays for hyphae and conidia in 1536-well plates (Fig. 4). […] A mammalian SH-SY5Y cell line was used in parallel as a counter-screen with the same ATP content assay kit to assess the specificity of these compounds for E. rostratum.

[4] = Table S1, Inact. = no significant activity in the primary screen
[5] = Table S1, 46 µM Amphotericin B = 100%, Inact. = no significant activity at 46 µM
[6] = Table S1, 46 µM Amphotericin B = 100%
[7] = Table S1, Inact. = no significant activity in the primary screen, read-out: Hyphae % M. Res.
[8] = Table S1, Inact. = no significant activity at the highest compound concentration (46 µM)
[9] = Table 2, inact. = no significant activity in the primary screen
[10] = Table 2, 24 h, inact. = no significant activity in the primary screen
[11] = Exserohilum rostratum, 24 h, Table 2, 24 h, inact. = no significant activity at the highest compound concentration (46 µM)
[12] = Exserohilum rostratum, Table 2, 46 µM Amphotericin B = 100%, inact. = no significant activity at 46 µM, read-out: Conidia % Max. Resp.
[13] = Table 2, inact. = no significant activity in the primary screen, read-out: Hyphae % Max. Resp.
[14] = Exserohilum rostratum, Table S1, 46 µM Amphotericin B = 100%, Inact. = no significant activity at 46 µM, read-out: Conidia % M. Res.

Mepartricin
Hyphae % M. Res. [1, 4]: Inact. | Hyphae IC50 [1, 4]: Inact. | Conidia % M. Res. [2, 5]: 80% | IC50 [3]: 37.2 µM | SH-SY5Y % M. Res. [3, 6]: 38%

C[C@@H]1C/C=C/C=C/C=C/C=C/[C@H](O[C@@H]2O[C@H](C)[C@@H](O)[C@H](N)[C@@H]2O)C[C@@H]2O[C@](O)(C[C@@H](O)C[C@H]3O[C@@H]3/C=C/C(=O)O1)C[C@H](O)[C@H]2C(=O)O [Natamycin]
Emax [1, 7]: 66% | IC50 [1, 4]: 46.9 µM | Conidia % M. Res. [2, 5]: Inact. | Conidia IC50 [2, 8]: Inact. | SH-SY5Y % M. Res. [3, 6]: Inact. | SH-SY5Y IC50 [3, 8]: Inact.

Oc1c(I)cc(I)c2cccnc12 [Iodoquinol]
Hyphae % Max. Resp. [1, 9]: inact. | Hyphae IC50 [1, 10]: inact. | IC50 [2, 11]: 2.75 µM | Emax [2, 12]: 99% | SH-SY5Y % Max. Resp. ([3]; 46 µM Amphotericin B = 100%): 58% | SH-SY5Y % Max. Resp. [3]: 26.3%

CC1(C)CCC(=Cc2ccc(Cl)cc2)C1(O)Cn1cncn1 (stereo not drawn) [Triticonazole]
Emax [1, 13]: 74% | IC50 [1, 10]: 5.82 µM | Emax [1, 7]: 74% | IC50 [2, 11]: 6.95 µM | Emax [2, 12]: 100% | Emax [2, 14]: 100% | SH-SY5Y % Max. Resp. ([3]; 46 µM Amphotericin B = 100%): inact. | SH-SY5Y % Max. Resp. [3]: inact. | SH-SY5Y % M. Res. [3, 6]: Inact. | SH-SY5Y IC50 [3, 8]: Inact.

[N-]=[N+]=CC(=O)OC[C@H](N)C(=O)O [Azaserine]
Hyphae % M. Res. [1, 4]: Inact. | Hyphae IC50 [1, 4]: Inact. | Conidia % M. Res. [2, 5]: Inact. | Conidia IC50 [2, 8]: Inact. | SH-SY5Y % M. Res. [3, 6]: Inact. | SH-SY5Y IC50 [3, 8]: Inact.

CCCCCCCCCC(=O)NO [Decanohydroxamic acid]
Hyphae % M. Res. [1, 4]: Inact. | Hyphae IC50 [1, 4]: Inact. | Conidia % M. Res. [2, 5]: Inact. | Conidia IC50 [2, 8]: Inact. | SH-SY5Y % M. Res. [3, 6]: Inact. | SH-SY5Y IC50 [3, 8]: Inact.

Oc1c(Cl)cc(Cl)c(Cl)c1Cc1c(O)c(Cl)cc(Cl)c1Cl [Hexachlorophene]
Hyphae % Max. Resp. [1, 9]: inact. | Hyphae IC50 [1, 10]: inact. | IC50 ([2]; Exserohilum rostratum, 24 h): 3.97 µM | Emax ([2]; Exserohilum rostratum, read-out: Conidia % Max. Resp.): 109% | SH-SY5Y % Max. Resp. ([3]; 46 µM Amphotericin B = 100%): inact. | SH-SY5Y % Max. Resp. [3]: inact.

COCc1c(C(C)C)nc(C(C)C)c(/C=C/[C@@H](O)C[C@@H](O)CC(=O)O)c1-c1ccc(F)cc1 [Cerivastatin sodium]
Emax [1, 13]: 79% | IC50 [1, 10]: 1.61 µM | IC50 [2, 11]: 0.472 µM | Emax [2, 12]: 101% | SH-SY5Y % Max. Resp. ([3]; 46 µM Amphotericin B = 100%): inact. | SH-SY5Y % Max. Resp. [3]: inact.

Cc1cc(N)c2ccccc2[n+]1CCCCCCCCCC[n+]1c(C)cc(N)c2ccccc21 [Dequalinium dichloride]
Emax [1, 13]: 93% | IC50 [1, 10]: 0.673 µM | IC50 [2, 11]: 2.54 µM | Emax [2, 12]: 109% | SH-SY5Y % Max. Resp. ([3]; 46 µM Amphotericin B = 100%): inact. | SH-SY5Y % Max. Resp. [3]: inact.

C=CCOC(Cn1ccnc1)c1ccc(Cl)cc1Cl (stereo not drawn) [Enilconazole]
Emax [1, 13]: 73% | IC50 [1, 10]: 0.312 µM | IC50 [2, 11]: 1.72 µM | Emax [2, 12]: 102% | SH-SY5Y % Max. Resp. ([3]; 46 µM Amphotericin B = 100%): inact. | SH-SY5Y % Max. Resp. [3]: inact.

c1ccc(-c2ccc(C(c3ccccc3)n3ccnc3)cc2)cc1 (stereo not drawn) [Bifonazole]
Emax [1, 7]: 74% | IC50 [1, 4]: 11.8 µM | IC50 ([2]; Exserohilum rostratum, Table S1, Inact. = no significant activity at the highest compound concentration (46 µM)): 9.35 µM | Emax [2, 14]: 64% | IC50 ([3]; Homo sapiens, SH-SY5Y, Table S1, Inact. = no significant activity at the highest compound concentration (46 µM)): 46.9 µM | SH-SY5Y % M. Res. [3, 6]: 47%

CC1(C)CCC(NC(=O)[C@@H](N)CCC(=O)O)CC1 [Neboglamine]
Hyphae % M. Res. [1, 4]: Inact. | Hyphae IC50 [1, 4]: Inact. | Conidia % M. Res. [2, 5]: Inact. | Conidia IC50 [2, 8]: Inact. | SH-SY5Y % M. Res. [3, 6]: Inact. | SH-SY5Y IC50 [3, 8]: Inact.

Phenylmercuric borate
Hyphae % Max. Resp. [1, 9]: inact. | Hyphae IC50 [1, 10]: inact. | Conidia % Max. Resp. ([2]; Table 2, 46 µM Amphotericin B = 100%, inact. = no significant activity at 46 µM): 103% | IC50 ([2]; Table 2, 24 h, inact. = no significant activity at the highest compound concentration (46 µM)): 0.149 µM | SH-SY5Y % Max. Resp. ([3]; 46 µM Amphotericin B = 100%): 99% | SH-SY5Y % Max. Resp. [3]: 0.417%

Oc1ccc(Cl)cc1Sc1cc(Cl)ccc1O [Fenticlor]
Hyphae % Max. Resp. [1, 9]: inact. | Hyphae IC50 [1, 10]: inact. | IC50 ([2]; Exserohilum rostratum, 24 h): 5.72 µM | Emax [2, 12]: 107% | SH-SY5Y % Max. Resp. ([3]; 46 µM Amphotericin B = 100%): inact. | SH-SY5Y % Max. Resp. [3]: inact.

Source: PMC3749181, “Rapid Identification of Antifungal Compounds against Exserohilum rostratum Using High Throughput Drug Repurposing Screens” (PLoS ONE, 2013)
